Bounds are passed on as bounds.

The experiment addresses T1, ΔF508-CFTR (Homo sapiens, UniProt P13569, DEL508-508).
T1 construct: expressed in transfected cells; host or cells: NIH3T3 mouse fibroblasts, stably expressing, cultured at 27 °C (temperature-corrected)
As to the kind of experiment: Membrane potential optical assay for identification of ΔF508-CFTR potentiators (FLIPR III, forskolin activation). The format is cell-based. The conditions noted are these: for Emax: NIH3T3, 100% efficacy is the maximum response obtained with 4-methyl-2-(5-phenyl-1H-pyrazol-3-yl)phenol, ΔF508 CFTR NIH 3T3 cells; for EC50: temperature-corrected ΔF508 CFTR NIH 3T3 cells. The text has this: The assay utilizes fluorescent voltage sensing dyes to measure changes in membrane potential using a fluorescent plate reader (e.g., FLIPR III, Molecular Devices, Inc.) as a readout for increase in functional ΔF508-CFTR in NIH 3T3 cells. The driving force for the response is the creation of a chloride ion gradient in conjunction with channel activation by a single liquid addition step after the cells have previously been treated with compounds and subsequently loaded with a voltage sensing dye.
To identify potentiators of ΔF508-CFTR, a double-addition HTS assay format was developed. This HTS assay utilizes fluorescent voltage sensing dyes to measure changes in membrane potential on the FLIPR III as a measurement for increase in gating (conductance) of ΔF508 CFTR in temperature-corrected ΔF508 CFTR NIH 3T3 cells. The driving force for the response is a Cl^− ion gradient in conjunction with channel activation with forskolin in a single liquid addition step using a fluorescent plate reader such as FLIPR III after the cells have previously been treated with potentiator compounds (or DMSO vehicle control) and subsequently loaded with a redistribution dye.
Solutions • Bath Solution #1: (in mM) NaCl 160, KCl 4.5, CaCl2 2, MgCl2 1, HEPES 10, pH 7.4 with NaOH. Chloride-Free Bath Solution: Chloride Salts in Bath Solution #1 are Substituted with Gluconate Salts.
NIH3T3 mouse fibroblasts stably expressing ΔF508-CFTR are used for optical measurements of membrane potential. The cells are maintained at 37° C. in 5% CO2 and 90% humidity in Dulbecco's modified Eagle's medium supplemented with 2 mM glutamine, 10% fetal bovine serum, 1×NEAA, β-ME, 1× pen/strep, and 25 mM HEPES in 175 cm^2 culture flasks. For all optical assays, the cells were seeded at ˜20,000/well in 384-well matrigel-coated plates and cultured for 2 hrs at 37° C. before culturing at 27° C. for 24 hrs. for the potentiator assay. For the correction assays, the cells are cultured at 27° C. or 37° C. with and without compounds for 16-24 hours.

T1 sequence (P13569 with tags, fused parts or gaps DEL508-508): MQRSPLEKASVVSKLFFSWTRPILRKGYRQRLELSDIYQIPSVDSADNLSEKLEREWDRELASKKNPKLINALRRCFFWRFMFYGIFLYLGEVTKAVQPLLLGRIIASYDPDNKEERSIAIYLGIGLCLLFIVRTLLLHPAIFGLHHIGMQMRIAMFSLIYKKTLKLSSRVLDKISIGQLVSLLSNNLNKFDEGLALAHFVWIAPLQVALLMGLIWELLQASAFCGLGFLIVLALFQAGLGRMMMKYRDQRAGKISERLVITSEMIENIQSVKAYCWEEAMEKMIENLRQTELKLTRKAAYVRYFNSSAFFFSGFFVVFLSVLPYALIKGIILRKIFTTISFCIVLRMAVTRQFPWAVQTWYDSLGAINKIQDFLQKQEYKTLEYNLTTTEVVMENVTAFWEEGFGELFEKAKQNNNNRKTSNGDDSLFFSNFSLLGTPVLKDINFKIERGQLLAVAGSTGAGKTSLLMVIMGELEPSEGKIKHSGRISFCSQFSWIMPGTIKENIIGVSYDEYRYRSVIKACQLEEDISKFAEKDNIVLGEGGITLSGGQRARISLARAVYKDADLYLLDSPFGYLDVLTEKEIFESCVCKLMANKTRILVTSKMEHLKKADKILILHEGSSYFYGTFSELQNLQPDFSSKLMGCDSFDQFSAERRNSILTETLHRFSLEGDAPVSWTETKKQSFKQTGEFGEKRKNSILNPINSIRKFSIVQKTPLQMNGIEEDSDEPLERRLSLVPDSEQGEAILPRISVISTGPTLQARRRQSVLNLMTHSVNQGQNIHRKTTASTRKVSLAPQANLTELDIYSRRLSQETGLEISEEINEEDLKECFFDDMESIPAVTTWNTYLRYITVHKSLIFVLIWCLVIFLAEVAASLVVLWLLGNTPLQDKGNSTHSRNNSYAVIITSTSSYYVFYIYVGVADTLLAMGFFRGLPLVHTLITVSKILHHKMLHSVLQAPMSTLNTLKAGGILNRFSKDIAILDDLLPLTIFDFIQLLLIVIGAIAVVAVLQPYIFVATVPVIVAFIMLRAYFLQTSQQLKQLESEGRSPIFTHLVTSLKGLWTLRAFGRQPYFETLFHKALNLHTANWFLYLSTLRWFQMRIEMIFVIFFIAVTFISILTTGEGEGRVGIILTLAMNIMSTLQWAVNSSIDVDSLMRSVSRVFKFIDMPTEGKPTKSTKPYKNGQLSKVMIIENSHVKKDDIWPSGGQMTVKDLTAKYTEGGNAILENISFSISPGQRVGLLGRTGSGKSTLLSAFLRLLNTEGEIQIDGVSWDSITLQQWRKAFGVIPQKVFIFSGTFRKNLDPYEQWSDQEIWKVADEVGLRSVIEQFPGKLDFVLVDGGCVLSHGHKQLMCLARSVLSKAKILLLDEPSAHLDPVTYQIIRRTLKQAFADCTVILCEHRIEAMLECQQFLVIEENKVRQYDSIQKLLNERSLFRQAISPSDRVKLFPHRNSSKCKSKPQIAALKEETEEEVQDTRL

Regarding `O=C(Nc1ccc(N2C3CCC2[C@H](O)C3)cc1C(F)(F)F)c1c[nH]c2cccc(C(F)(F)F)c2c1=O` (stereo partly drawn) [Compound 1a], the Emax lay within 25 to 100% and the EC50 was under 2 µM.

Regarding `O=C(Nc1ccc(N2C3CCC2CC3)cc1C(F)(F)F)c1c[nH]c2cccc(C(F)(F)F)c2c1=O` [Formula II, N-(4-(7-azabicyclo[2.2.1]heptan-7-yl)-2-(trifluoromethyl)phenyl)-4-oxo-5-(trifluoromethyl)-1,4-dihydroquinoline-3-carboxamide], the Emax fell in the range of 25 to 100% and the EC50 was under 2 µM.

`O=C(Nc1ccc(N2[C@@H]3CC[C@H]2[C@H](O)C3)cc1C(F)(F)F)c1c[nH]c2cccc(C(F)(F)F)c2c1=O` (relative stereo) [Compound 1b]: the Emax was over 100% and the EC50 was under 2 µM.

What is called Emax is the size of the effect at its maximum, as opposed to the concentration needed. A word on the EC50: it is the concentration at which the effect is half-maximal.

Source of the values: patent US8404849B2, “Processes for producing modulators of cystic fibrosis transmembrane conductance regulator” (Vertex Pharmaceuticals, priority 2010, dated 2013).
